{"source": "patent US11819576B2", "about": "“Process for preparing nano-or microparticles comprising a carrier-polymer and one or more biologically active ingredients” (Evonik Operations GmbH, priority 2019, dated 2023)", "key": {"physchem": {"test": "physchem", "conditions": "22 °C, organic solvent or mixture, thermodynamic from solid, Solubility in mg/ml", "description": "100 μl n-butanol was added and the dispersion was stirred at ˜300 to 500 rpm by a magnetic stirrer at 21-23° C. n-Butanol was added 10 μl wise.\n100 μl water saturated n-butanol (achieved from example 4) was added and the dispersion was stirred at ˜300 to 500 rpm by a magnetic stirrer at 21-23° C. n-Butanol was added 10 μl wise.\n100 μl 25% aqueous NaCl solution saturated n-butanol (achieved from example 6) was added and the dispersion was stirred at ˜300 to 500 rpm by a magnetic stirrer at 21-23° C. n-Butanol was added 10 μl wise.\n31.35 mg efavirenz (Angene Intemational Limited, China) was weighed into a 10 ml glass vial containing a 1 cm magnetic bar. 50 μl n-butanol was added and the dispersion was stirred at ˜300 to 500 rpm by a magnetic stirrer at 21-23° C. n-Butanol was added 10 μl wise.\n30.57 mg efavirenz was weighed into a 10 ml glass vial containing a 1 cm magnetic bar. 50 μl water saturated n-butanol (achieved from example 4) was added and the dispersion was stirred at ˜300 to 500 rpm by a magnetic stirrer at 21-23° C. Water saturated n-butanol was added 10 μl wise till 250 μl. After 250 μl, 25 μl wise addition was used.\n31.35 mg efavirenz was weighed into a 10 ml glass vial containing a 1 cm magnetic bar. 50 μl 25% aqueous NaCl solution saturated n-butanol (achieved from example 6) was added and the dispersion was stirred at ˜300 to 500 rpm by a magnetic stirrer at 21-23° C. […]"}, "[1]": {"test": "Telmisartan release profile, dissolution test using USP II dissolution tester, acetate buffer pH 4.0, 2 h", "assay_type": "physicochemical", "conditions": "acetate buffer pH 4.0, USP II", "description": "FIG. 2), Telmisartan release profile was analyzed by a dissolution test using a USP II dissolution tester (ERWEKA GmbH, Langen, Germany) at pH 4.0 acetate buffer for 2 h (shown in […]"}}, "data": [{"smiles": "Cc1ccc(-c2cc(C(F)(F)F)nn2-c2ccc(S(N)(=O)=O)cc2)cc1", "note": "[Celecoxib, celecoxib]", "values": [{"measurement": "solubility", "setting": "physchem", "result": 22, "unit": "mg/mL"}]}, {"smiles": "CCCc1nc2c(C)cc(-c3nc4ccccc4n3C)cc2n1Cc1ccc(-c2ccccc2C(=O)O)cc1", "note": "[Telmisartan pure active, Telmisartan]", "values": [{"measurement": "Release of Telmisartan", "setting": "[1]; time 0 min", "result": 0.040, "unit": "%"}, {"measurement": "Release of Telmisartan", "setting": "[1]; time 5 min", "result": 0.081, "unit": "%"}, {"measurement": "Release of Telmisartan", "setting": "[1]; time 10 min", "result": 0.148, "unit": "%"}, {"measurement": "Release of Telmisartan", "setting": "[1]; time 15 min", "result": 0.185, "unit": "%"}, {"measurement": "Release of Telmisartan", "setting": "[1]; time 30 min", "result": 0.240, "unit": "%"}, {"measurement": "Release of Telmisartan", "setting": "[1]; time 45 min", "result": 0.613, "unit": "%"}, {"measurement": "Release of Telmisartan", "setting": "[1]; time 60 min", "result": 0.310, "unit": "%"}, {"measurement": "Release of Telmisartan", "setting": "[1]; time 90 min", "result": 0.671, "unit": "%"}, {"measurement": "Release of Telmisartan", "setting": "[1]; time 120 min", "result": 0.343, "unit": "%"}]}]}
